“Also recorded” adds a separate entry of the source.
Assays:
[1] = tested on: formalin-induced nociception; assay: Formalin-induced analgesic (nociception) test; assay type: in vivo, Male Wistar rats
Excerpt: The formalin-induced analgesic test is an extensively acknowledged animal nociception model. In order to evaluate both central and peripheral effects of the compound (20), formalin-induced nociception model was selected for analgesic activity. The formalin induced behavioral response comprises two typical phases, stage I and II. Stage I persists up to five minutes after formalin injection and is characterized by acute pain with vigorous licking and biting of the injected site. Stage I consists the action formalin on afferent C-fiber nociceptors. While Stage II starts 10–30 min after formalin injection and persists till 60 min, characterized by periodic licking and biting of the injected site. Stage II imitates the action of central sensitization of the spinal dorsal horn neurons.
Figure 5 Formalin-induced analgesic test; a dose of the test compound 20 (5, 10, 30, and 50 mg/kg, p.o, suspended in 0.5% CMC) was administered 4 h before formalin injection (50 µL, 2.5%). Reference drug, gabapentin (100 mg/kg, i.p, dissolved in 0.9% normal saline) was injected 30 min before formalin injection. Total paw licking and biting duration, Stage I (white bar, 0–5 min) and stage II (black bar, 10–30 min) was recorded as a measure of pain behavior. Data is represented as mean ± SEM from a group of 10 animals. * p < 0.05, ** p < 0.01, p > 0.05 (NS, nonsignificant) vs. control (vehicle). GBP: Gabapentin; D5, D10, D30, andD50 are the dose concentrations of test compound 20.
Male Wistar rats (180–200 g) were obtained with the permission of IAEC (proposal number 1048) from Jamia Hamdard, New Delhi, India. The results of test compound 20 and reference drug, Gabapentin (GBP), were statistically compared with the control group.

TK-10 = assay: NCI60 single-dose SRB assay; assay type: cell-based, human; conditions: TK-10, Renal Cancer, 10 μM
Procedure: (§1) Compounds 19 and 20 were supplied to National Cancer Institute (USA), for sulforhodamine B (SRB) assay and anticancer screening. Single-dose (10 µM) assay results for compounds 19 and 20 were provided as a mean of percent growth (% G) and growth inhibition (% GI) against 60 cell lines of nine types of cancers and are tabulated in Table 4. […] Both the compounds 19 and 20 were also found active on UO-31 renal cancer cell line with % GI of 21.18 and 29.95, respectively.
(§2) Compounds 19 and 20 were supplied to National Cancer Institute (Bethesda, Maryland, USA), for in vitro sulforhodamine B (SRB) assay, anticancer screening on 60 cell lines of cancers of leukemia, melanoma, and tumors of the kidney, brain, breast, lung, colon, ovary, and prostate, as per their standard protocol. One dose anticancer results (NCI, USA) of compounds 19 and 20 are provided in the Supplementary Materials.

SW-620 = assay: NCI60 single-dose SRB assay; assay type: cell-based, human; conditions: SW-620, Colon Cancer, 10 μM
Procedure: as §1, §2

SK-MEL-2 = assay: NCI60 single-dose SRB assay; assay type: cell-based, human; conditions: SK-MEL-2, Melanoma, 10 μM
Procedure: as §1, §2

NCI-H460 = assay: NCI60 single-dose SRB assay; assay type: cell-based, human; conditions: NCI-H460, Non-Small Cell Lung Cancer, 10 μM
Procedure: as §1, §2

HCC-2998 = assay: NCI60 single-dose SRB assay; assay type: cell-based, human; conditions: HCC-2998, Colon Cancer, 10 μM
Procedure: as §1, §2

In the case of `NS(=O)(=O)c1ccc(N2CC(c3nc4ccccc4o3)CC2=O)cc1` (stereo not shown) [Compound 20, 4-(4-(Benzo[d]oxazol-2-yl)-2-oxopyrrolidin-1-yl)benzenesulfonamide], the “pain response in acute (Stage I) and late (Stage II) phases” value ([1]; 5, 10, 30, and 50 mg/kg p.o., 4 h prior to formalin injection) is reported as “reduced the pain response in acute and late stages in a dose-dependent manner; also recorded: reduced the pain response significantly both in acute (Stage I) and late (Stage II) phases, in a dose-dependent manner; also recorded: reduced the pain response significantly both in acute (stage I) and late (stage II) phases in a dose-dependent manner”, the “reduction in pain response compared with positive control GBP” value ([1]; at 30 mg/kg p.o., GBP 100 mg/kg i.p.) is reported as “better potency than the positive control gabapentin (GBP)” and the “% G” value (TK-10) is reported as 114.82%. The “% GI” value (TK-10) was −14.82%, the “% G” value (SW-620) was 102.95% and the “% GI” value (SW-620) was −2.95%. The “% G” value (SK-MEL-2) was 111.54%, the “% GI” value (SK-MEL-2) was −11.54% and the “% G” value (NCI-H460) was 104.20%. For the same molecule, the “% GI” value (NCI-H460) was −4.20%, the “% G” value (HCC-2998) was 100.24% and the “% GI” value (HCC-2998) was −0.24%.

`O=C1CC(c2nc3ccccc3o2)CN1c1ccc([N+](=O)[O-])cc1` (stereo not shown) [Compound 19, 4-(Benzo[d]oxazol-2-yl)-1-(4-nitrophenyl)pyrrolidin-2-one] was tested, and the “% G” value (TK-10) was 110.14%, the “% GI” value (TK-10) was −10.14% and the “% G” value (SW-620) was 102.52%. For the same molecule, the “% GI” value (SW-620) was −2.52%, the “% G” value (SK-MEL-2) was 102.31% and the “% GI” value (SK-MEL-2) was −2.31%. For the same molecule, the “% G” value (NCI-H460) was 102.33%, the “% GI” value (NCI-H460) was −2.33% and the “% G” value (HCC-2998) was 102.05%. The “% GI” value (HCC-2998) was −2.05%.

Source: publication PMC8074287, “Analgesic and Anticancer Activity of Benzoxazole Clubbed 2-Pyrrolidinones as Novel Inhibitors of Monoacylglycerol Lipase” (Molecules, 2021)
